Measurements published in patent US10604514B2, “6-(5-membered heteroaryl)isoquinolin-3-yl carboxamides and preparation and use thereof” (Samumed, LLC, priority 2017, dated 2020).
Read-outs that look alike come from different tables or passages of the source.

What was measured:
GSK3β kinase = GSK3β kinase (Homo sapiens (Human), UniProt P49841); assay: GSK3β kinase assay (Ser/Thr 09 peptide Z-lyte, FRET); assay type: biochemical; details: method text calls the value IC50;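 also: Coumarin/fluorescein emission ratio converted to percent phosphorylation against unphosphorylated (0%) and phosphorylated (100%) controls, 1 h compound incubation at room temperature, 11-point threefold dilutions from 10 µM, run in duplicate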
Sequence of GSK3β kinase (P49841 whole entry): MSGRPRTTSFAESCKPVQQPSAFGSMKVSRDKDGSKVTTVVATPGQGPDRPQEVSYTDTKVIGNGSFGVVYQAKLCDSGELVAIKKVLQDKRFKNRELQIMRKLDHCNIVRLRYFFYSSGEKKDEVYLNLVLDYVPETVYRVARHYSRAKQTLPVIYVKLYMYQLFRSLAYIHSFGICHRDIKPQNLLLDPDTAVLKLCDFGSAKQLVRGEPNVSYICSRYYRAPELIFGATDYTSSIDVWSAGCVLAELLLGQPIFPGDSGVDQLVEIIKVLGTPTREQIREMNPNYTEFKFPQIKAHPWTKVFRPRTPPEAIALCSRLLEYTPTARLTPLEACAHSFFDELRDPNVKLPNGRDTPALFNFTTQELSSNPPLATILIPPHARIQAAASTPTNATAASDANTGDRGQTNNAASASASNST

[1] = test system: Tau phosphorylation at Ser396 (pSer396), SH-SY5Y cells; assay: Tau phosphorylation at Ser396 (pSer396) in SH-SY5Y cells, ELISA/western blot; assay type: cell-based, human; details: Homo sapiens;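 also: cell lysates probed for reduced Tau pSer396 via ELISA (colorimetric) or western blot (chemiluminescence), both with one shared pSer396 antibody, EC50 for lowering phosphorylation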
[2] = test system: Tau phosphorylation at Threonine 212 (pT212Tau), HEK293T cells; assay: Tau phosphorylation at Threonine 212 (pT212Tau) in Dyrk1a- and MAPT-overexpressing HEK293T cells, sandwich ELISA; assay type: cell-based; details: Homo sapiens, HEK-293T, overnight (16-18 hours), read-out: Thr212 EC50
Method: Representative compounds were screened using the cell-based assay procedure for signal of Tau phosphorylation at Threonine 212 (pT212Tau) in a transiently double transfected (Dyrk1a- and MAPT-overexpressing) cell type as described below.
HEK293T cells (transfectable human embryonic kidney cells) were cultured in DMEM medium supplemented with 10% FBS and 1% penicillin/streptomycin.
HEK293T cells were transiently transfected to overexpress Dyrkla and microtubule-associated protein Tau (MAPT) genes. Specifically, Dyrkla and MAPT expression vectors were obtained from OriGene (10 μg of each, catalog numbers SC314641 and RC216166, respectively). A MaxiPrep for each vector was ordered and received from GeneWiz, yielding […] (resuspended at […]) of the Dyrkla expression vector, and 898 μg (resuspended at 1.796 μg/μL) of MAPT.
HEK293T cells were seeded at 1.0×10^7 cells in 10 mL per T-75 flask. […] One T-75 flask was designated as a no-vector negative control for pT212Tau signal.
After 4˜6 hours of incubation in transfection reagents, transiently double transfected HEK293T cells were dissociated by treatment with trypsin EDTA and seeded at 1.0×10^5 cells in 100 μL per well in 96-well plates. No-vector negative controls were seeded in separate 96-well plates to avoid the risk of the negative control cells picking up the overexpression during incubation. At the time of seeding, DMSO-resuspended Samumed compounds were dispensed to eight wells as a serial dilution from 10 μM to 4.6 nM final concentration in medium, or at 0.12 μM to 0.05 nM with particularly potent compounds. Cells were exposed to the representative compounds overnight (16-18 hours) in a 37° C. incubator.
96-Well flat-bottom plates were coated with 100 μL per well anti-HT7 capture antibody (ThermoFisher, MN1000) diluted 1:300 in 1×PBS at 4° C. overnight, with shaking at 500 rpm. After overnight capture antibody incubation, coated plates were washed four times with 200 µL per well of 1×PBS-0.05% Tween-20, and blocked for 1 hour with 200 μL per well of 1×PBS with 2% BSA. After 1 hour of blocking, plates were washed four times with 200 μL per well of 1×PBS-0.05% Tween-20, prior to sample loading.
Wells of compound-treated cells were visually checked for cell death before being washed with 200 μL per well of 1×DPBS supplemented with phosphatase inhibitor diluted to IX. Cells were then lysed with 100 μL 1×RIPA buffer supplemented with phosphatase and protease inhibitors (each diluted to a final 1×). Cells were shaken at 500 rpm, 4° C. for 20 minutes prior to further lysis (via manual scraping) and transfer to 96-well V-bottom collection plates (Corning, 3894). V-bottom plates were centrifuged at 4000 rpm, 4° C., for 15 minutes, and 100 μL of lysate supernatant from each well was directly tested for pT212Tau signal by sandwich ELISA.
Specifically, lysates were directly transferred to the coated and blocked ELISA plates for 2 hours before plates were washed four times with 200 μL per well of 1×PBS-0.05% Tween-20 and probed with 100 μL per well of anti-pT212Tau antibody (ThermoFisher, 44-740G) diluted 1:200 in 1×PBS for 2 hours. Plates were washed four times with 200 μL per well of 1×PBS-0.05% Tween-20 and probed with 100 μL per well of anti-rabbit/HRP conjugate (Cell Signaling Technology, 7074S) diluted 1:600 in 1×PBS for 1 hour. Plates were washed four times with 200 μL per well of 1×PBS-0.05% Tween-20 before 100 μL per well of TMB substrate solution (ThermoFisher, N301) was added. When colour development was observed, 100 μL per well of stop solution (ThermoFisher, N600) was added, and colorimetric detection of pT212Tau signal was read at 450 nm with the Cytation 3 Cell Imaging Multi-Mode Reader (BioTek). The signal was used to plot, draw the curves fitting, and determine the EC50 values in GraphPad Prism for tested representative compounds.

IL-6 = IL-6 inhibition in LPS-stimulated human peripheral blood mononuclear cells (HTRF); assay type: cell-based; details: Homo sapiens, PBMC; for EC50: IL-6, LPS-stimulated huPBMCs, HTRF; for inhibition at 10 µM: read-out: percent value in parentheses below EC50 >10
How it was run: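 EC50 from a 4-parameter fit of DMSO-normalized HTRF (665/620 nm) IL-6 signal, duplicates. Compound was added to fresh human PBMCs in 1% FBS RPMI for 2 h (top 10 μM, 3-fold, 0.25% DMSO) before 22 h stimulation with LPS at 50 ng/mL, 37 °C.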

[3] = SH-SY5Y cells, overnight (16-18 h), read-out: pSer396 Tau EC50
[4] = SH-SY5Y, read-out: pSer396 Tau EC50 (μM)

For `Cc1nnc(-c2ccc3cnc(NC(=O)[C@H]4CC[C@H](N(C)C)CC4)cc3c2)s1` [Compound 22, trans-4-(Dimethylamino)-N-(6-(5-methyl-1,3,4-thiadiazol-2-yl)isoquinolin-3-yl)cyclohexane-1-carboxamide], the EC50 (GSK3β kinase) was 0.022 µM, the EC50 [1, 3] was 0.126 µM and the EC50 [2] was 0.011 µM. It also gave an EC50 (IL-6) of 6.66 µM.
For `Cc1cn2c(n1)CN(C(=O)Nc1cc3cc(-c4nnc(C)s4)ccc3cn1)CC2` [Compound 58, 2-Methyl-N-(6-(5-methyl-1,3,4-thiadiazol-2-yl)isoquinolin-3-yl)-5,6-dihydroimidazo[1,2-a]pyrazine-7(8H)-carboxamide], the EC50 (GSK3β kinase) was 0.007 µM, the EC50 [1, 3] was 0.058 µM and the EC50 [2] was 0.093 µM. For the same molecule, the EC50 (IL-6) was 9.57 µM.
With `CN1CC2CCC(C1)N2C(=O)Nc1cc2cc(-c3cnn(C)c3)ccc2cn1` [Compound 61, 3-Methyl-N-(6-(1-methyl-1H-pyrazol-4-yl)isoquinolin-3-yl)-3,8-diazabicyclo[3.2.1]octane-8-carboxamide] the EC50 (GSK3β kinase) was 9.21 µM, the EC50 [1, 4] was > 10 µM and the EC50 [2] was 0.015 µM. The inhibition at 10 µM (IL-6) was 5.2% and the EC50 (IL-6) was > 10 µM.
`C[C@@H]1CN(C(=O)Nc2cc3cc(-c4cnn(C)c4)ccc3cn2)CCN1C` [Compound 67, (R)-3,4-Dimethyl-N-(6-(1-methyl-1H-pyrazol-4-yl)isoquinolin-3-yl) piperazine-1-carboxamide] was tested, and the EC50 (GSK3β kinase) was 1.87 µM, the EC50 [1, 3] was > 10 µM and the EC50 [2] was 0.006 µM. The inhibition at 10 µM (IL-6) was 29.6% and the EC50 (IL-6) was > 10 µM.
`COCCN[C@H]1CC[C@H](C(=O)Nc2cc3cc(-c4cnc(C)o4)ccc3cn2)CC1` [Compound 106, trans-4-((2-Methoxyethyl)amino)-N-(6-(2-methyloxazol-5-yl)isoquinolin-3-yl)cyclohexane-1-carboxamide] was tested, and the EC50 (GSK3β kinase) was 0.32 µM, the EC50 [1, 3] was 0.323 µM and the EC50 [2] was 0.137 µM. The EC50 (IL-6) was 1.11 µM.
With `Cc1nnc(-c2ccc3cnc(NC(=O)N4C5CCC4CN(C)C5)cc3c2)s1` [Compound 108, 3-Methyl-N-(6-(5-methyl-1,3,4-thiadiazol-2-yl)isoquinolin-3-yl)-3,8-diazabicyclo[3.2.1]octane-8-carboxamide] the EC50 (GSK3β kinase) was 0.671 µM, the EC50 [1, 4] was > 10 µM and the EC50 [2] was 0.022 µM. For the same molecule, the inhibition at 10 µM (IL-6) was 4.1% and the EC50 (IL-6) was > 10 µM.
For `Cc1nnc(-c2ccc3cnc(NC(=O)N4[C@@H]5CC[C@H]4C[C@H](NCCC(F)(F)F)C5)cc3c2)s1` [Compound 153, (1R,5S)-N-(6-(5-Methyl-1,3,4-thiadiazol-2-yl)isoquinolin-3-yl)-3-exo-((3,3,3-trifluoropropyl)amino)-8-azabicyclo[3.2.1]octane-8-carboxamide], the EC50 (GSK3β kinase) was 0.532 µM, the EC50 [1, 4] was > 10 µM and the EC50 [2] was 0.528 µM. The inhibition at 10 µM (IL-6) was 9% and the EC50 (IL-6) was > 10 µM.
Work on `Cc1ncc(-c2ccc3cnc(NC(=O)[C@H]4CC[C@H](NCCF)CC4)cc3c2)o1` [Compound 155, trans-4-((2-fluoroethyl)amino)-N-(6-(2-methyloxazol-5-yl)isoquinolin-3-yl) cyclohexane-1-carboxamide] yielded an EC50 (GSK3β kinase) of 0.668 µM, an EC50 [1, 3] of 0.384 µM and an EC50 [2] of 0.026 µM. For the same molecule, the EC50 (IL-6) was 1.06 µM.
`Cc1nnc(-c2ccc3cnc(NC(=O)N4[C@@H]5CC[C@H]4C[C@@H](NCCC(F)(F)F)C5)cc3c2)s1` [Compound 195, (1R,5S)-cis-N-(6-(5-methyl-1,3,4-thiadiazol-2-yl)isoquinolin-3-yl)-3-((3,3,3-trifluoropropyl)amino)-8-azabicyclo[3.2.1]octane-8-carboxamide] was tested, and the EC50 (GSK3β kinase) was 1.25 µM, the EC50 [1, 4] was > 10 µM and the EC50 [2] was 0.046 µM. The inhibition at 10 µM (IL-6) was 23.4% and the EC50 (IL-6) was > 10 µM.
With `COCCN[C@H]1CC[C@H](C(=O)Nc2cc3cc(-c4cnn(C)c4)ccc3cn2)CC1` [Compound 196, trans-4-((2-Methoxyethyl)amino)-N-(6-(1-methyl-1H-pyrazol-4-yl)isoquinolin-3-yl)cyclohexane-1-carboxamide] the EC50 (GSK3β kinase) was 0.194 µM, the EC50 [2] was 0.019 µM and the EC50 (IL-6) was 1.21 µM.
With `Cc1nnc(-c2cc(F)c3cnc(NC(=O)N(C)C4CCN(C)CC4)cc3c2)s1` [Compound 227, 3-(8-Fluoro-6-(5-methyl-1,3,4-thiadiazol-2-yl)isoquinolin-3-yl)-1-methyl-1-(1-methylpiperidin-4-yl)urea] the EC50 (GSK3β kinase) was 4.5 µM, the EC50 [1, 3] was 4.5 µM and the EC50 [2] was 0.691 µM. The inhibition at 10 µM (IL-6) was 4.9% and the EC50 (IL-6) was > 10 µM.
In the case of `CN1CCC(N(C)C(=O)Nc2cc3cc(-c4cn(C)nn4)cc(F)c3cn2)CC1` [Compound 228, 3-(8-Fluoro-6-(1-methyl-1H-1,2,3-triazol-4-yl)isoquinolin-3-yl)-1-methyl-1-(1-methylpiperidin-4-yl)urea], the EC50 (GSK3β kinase) is reported as 0.255 µM, the EC50 [1, 3] is reported as 6.4 µM and the EC50 [2] is reported as > 10 µM. For the same molecule, the inhibition at 10 µM (IL-6) was 3.3% and the EC50 (IL-6) was > 10 µM.
`CN1CCC(N(C)C(=O)Nc2cc3cc(-c4cnn(C)c4)cc(F)c3cn2)CC1` [Compound 230, 3-(8-Fluoro-6-(1-methyl-1H-pyrazol-4-yl)isoquinolin-3-yl)-1-methyl-1-(1-methylpiperidin-4-yl)urea] showed an EC50 (GSK3β kinase) of 3.64 µM, an EC50 [2] of 0.056 µM and an inhibition at 10 µM (IL-6) of 36.6%. The EC50 (IL-6) was > 10 µM.
For `Cc1ncc(-c2ccc3cnc(NC(=O)N(C)C4CCN(C)CC4)cc3c2)o1` [Compound 231, 1-Methyl-3-(6-(2-methyloxazol-5-yl)isoquinolin-3-yl)-1-(1-methylpiperidin-4-yl)urea], the EC50 (GSK3β kinase) was 2.83 µM, the EC50 [2] was 0.11 µM and the EC50 (IL-6) was 8.28 µM.
